Test results: patent publication US7253146B2, “Template-fixed peptidomimetics with antimicrobial activity” (Polyphor Ltd, priority 2001, dated 2007)
Values after ≈ are worked out from the molar mass of the structure shown. Read-outs that look alike come from different tables or passages of the source. *1 amine or outer side, *2 acyl side, *3 side chain or, on linkers, in order; H or OH if unused. Where a SMILES comes first, the peptide text is derived from it. [ ]: non-standard residue; d: D form. The star is where a group is joined. X1 = CCCCCCC(=O)N[C@H]1C[C@@H](C(=O)[*:2])N([*:1])C1; Phenylacetyl(4-Ph) = O=C(Cc1ccc(-c2ccccc2)cc1)*; X4 = O=C([C@@H]1C[C@H](N[*:3])CN1[*:1])[*:2]; Diphenylacetyl = O=C(C(c1ccccc1)c1ccccc1)*; Bip = N[C@@H](Cc1ccc(-c2ccccc2)cc1)C(=O)O; Cha = N[C@@H](CC1CCCCC1)C(=O)O

How the values were obtained:
[1] = test system: human red blood cells (hRBC); experiment: Hemolysis of human red blood cells at 100 μg/ml peptide; settings: 100 μg/ml of peptide, 20% v/v hRBC, 1 hour at 37° C.
Description: Hemolysis of red blood cells is often employed for assessment of toxicity of related compounds such as protegrin or tachyplesin. Values are given as %-lysis of red blood cells observed at a concentration of 100 μg/ml.
The peptides were tested for their hemolytic activity against human red blood cells (hRBC). Fresh hRBC were washed three times with phosphate buffered saline (PBS) by centrifugation for 10 min at 2000×g. Peptides at a concentration of 100 μg/ml were incubated with 20% v/v hRBC for 1 hour at 37° C. The final erythrocyte concentration was appr. 0.9×10^9/ml. A value of 0% resp. 100% cell lysis was determined by incubation of the hRBC in the presence of PBS alone and resp. 0.1% Triton X-100 in H2O. The samples were centrifuged and the supernatant was 20 fold diluted in PBS buffer and the optical density (OD) of the sample at […] was measured. […] Percent hemolysis was calculated as follows: (OD540peptide/OD540H2O)×100%.

[2] = test system: Escherichia coli (ATCC 25922)
Description: (§1) Lyophilized peptides were weighed on a Microbalance (Mettler MT5) and dissolved in sterile water containing 0.01% acetic acid Tachyplesin was purchased from Bachem Ltd. (Bubendorf Switzerland).
(§2) The antimicrobial activities of the peptides were determined by the standard NCCLS broth microdilution method (see ref 1, below) examined in sterile 96-wells plates (Nunclon polystyrene microtiter plates) in a total volume of 100 μl. […] 10^6 colony forming units (CFU)/ml for bacteria or 5×10^3 CFU/ml for Candida. Aliquots (50 μl) of the innocula were added to 50 μl of MH broth containing the peptide in serial twofold dilutions. The microorganisms used were Escherichia coli (ATCC 25922), Pseudomnonas aeruginosa (P. aeruginosa) (ATCC 27853), Stahylococcus aureus (ATCC 29213 and ATCC 25923) and Candida albicans. A selected number of peptides were screened for activity against a larger panel of gram-negative strains. These strains were; Escherichia coli ATCC 43827 and clinical isolates of Pseudomonas (P. aeruginosa V07 14482, P. aeruginosa 15288, P. aeruginosa V02 15328 and P. aeruginosa V09 16085) and Acinetobacter (Acinetobacter V04 19905/1, Acinetobacter V12 21143/1 and Acinetobacter V12 21193/1).

[3] = test system: Staphylococcus aureus ATCC 25923
Description: as §1, §2

Candida albicans [4] = test system: Candida albicans
Description: as §1, §2

[5] = test system: Staphylococcus aureus ATCC 29213
Description: as §1, §2

[6] = test system: gram-positive and gram-negative bacteria; settings: background statement; cited from earlier work
human red blood cells = settings: cited from earlier work
[7] = test system: Pseudomonas putida ATCC 27853
Description: as §2
(§3) Salt sensitivity of the peptides was tested by the microtiter serial dilution assay as described above. Only MH broth was replaced by MH broth containing 1% NaCl.

[8] = test system: Staphylococcus aureus ATCC 25923; remark: listed apart in the source
Description: as §2, §3

Candida albicans [9] = test system: Candida albicans; remark: listed apart in the source
Description: as §2, §3

[10] = test system: Escherichia coli ATCC 25922
Description: as §2, §3

[11] = test system: Staphylococcus aureus ATCC 29213; remark: listed apart in the source
Description: as §2, §3

MIC Escherichia coli ATCC 25922 ([2]; ATCC 25922) [µg/mL]	MIC Staphylococcus aureus ATCC 25923 ([3]; ATCC 25923) [µg/mL]	MIC Candida albicans (Candida albicans [4]) [µg/mL]	MIC Staphylococcus aureus ATCC 29213 ([5]; ATCC 29213) [µg/mL]	Compound	Hemolyses hRBC (percentage hemolyses) [1] [%]	MIC Escherichia coli ATCC 25922 ([2]; Table 8, Mueller-Hinton broth) [µg/mL]	MIC Staphylococcus aureus ATCC 25923 ([3]; Table 8, Mueller-Hinton broth) [µg/mL]	MIC Candida albicans (Candida albicans [4]; Table 8, Mueller-Hinton broth) [µg/mL]	MIC Staphylococcus aureus ATCC 29213 ([5]; Table 8, Mueller-Hinton broth) [µg/mL]	further results
				CC(C)C[C@@H]1NC(=O)[C@H](CCCNC(=N)N)NC(=O)[C@H](CC(C)C)NC(=O)[C@@H]2C[C@H](NC(=O)Cc3ccc(-c4ccccc4)cc3)CN2C(=O)[C@H]2CCCN2C(=O)[C@H](C(C)C)NC(=O)[C@H](CCCNC(=N)N)NC(=O)[C@H](Cc2ccc(O)cc2)NC(=O)[C@H](CCCCN)NC(=O)[C@H](Cc2c[nH]c3ccccc23)NC(=O)[C@H](CCCNC(=N)N)NC(=O)[C@H](CCCNC(=N)N)NC(=O)[C@H](CCCCN)NC(=O)[C@H](CCCCN)NC1=O [Example 258] (cyclo(KKRRWKYRV[dP][X4](Phenylacetyl(4-Ph))LRL))	23.6	6.2 (≈ 2.97 µM)	6.2 (≈ 2.97 µM)	12.5 (≈ 5.99 µM)	6.2 (≈ 2.97 µM)	
				CC(C)C[C@H](NC(=O)[C@H](CCCNC(=N)N)NC(=O)CNC(=O)CNC(=O)[C@@H](N)CCCNC(=N)N)C(=O)N[C@H]1CSSC[C@@H](C(=O)N[C@H](C(=O)NCC(=O)N[C@@H](CCCNC(=N)N)C(N)=O)C(C)C)NC(=O)[C@H](C(C)C)NC(=O)[C@@H]2CSSC[C@H](NC(=O)[C@H](Cc3ccc(O)cc3)NC1=O)C(=O)N[C@@H](CCCNC(=N)N)C(=O)N[C@@H](CCCNC(=N)N)C(=O)N[C@@H](CCCNC(=N)N)C(=O)N[C@@H](Cc1ccccc1)C(=O)N2 [protegrin]						antimicrobial activity [6]: potent and similar activity; hemolytic activity (human red blood cells): high hemolytic activity
				CC(C)C[C@@H]1NC(=O)[C@H](CCCNC(=N)N)NC(=O)[C@H](CC(C)C)NC(=O)[C@@H]2C[C@H](NC(=O)C(c3ccccc3)c3ccccc3)CN2C(=O)[C@H]2CCCN2C(=O)[C@H](C(C)C)NC(=O)[C@H](CCCNC(=N)N)NC(=O)[C@H](Cc2ccc(O)cc2)NC(=O)[C@H](CCCCN)NC(=O)[C@H](Cc2c[nH]c3ccccc23)NC(=O)[C@H](CCCNC(=N)N)NC(=O)[C@H](CCCNC(=N)N)NC(=O)[C@H](CCCCN)NC(=O)[C@H](CCCCN)NC1=O [Example 259] (cyclo(KKRRWKYRV[dP][X4](Diphenylacetyl)LRL))	18.0	6.2 (≈ 2.97 µM)	6.2 (≈ 2.97 µM)	12.5 (≈ 5.99 µM)	6.2 (≈ 2.97 µM)	
				Gramicidin S						antimicrobial activity [6]: potent antimicrobial activity; hemolytic activity (human red blood cells; background statement): high hemolytic activity
6.2 (≈ 3.53 µM)	25 (≈ 14.2 µM)	12.5 (≈ 7.12 µM)	12.5 (≈ 7.12 µM)	CC(C)C[C@@H]1NC(=O)[C@H](Cc2ccccc2)NC(=O)[C@H](CC(C)C)NC(=O)[C@H](Cc2ccccc2)NC(=O)[C@@H]2CCCN2C(=O)[C@H]2CCCN2C(=O)[C@H](CCCNC(=N)N)NC(=O)[C@H](CCCNC(=N)N)NC(=O)[C@H](Cc2ccccc2)NC(=O)[C@H](CC(C)C)NC(=O)[C@H](CCCNC(=N)N)NC(=O)[C@H](CCCNC(=N)N)NC(=O)[C@H](CCCNC(=N)N)NC1=O [Example 63] (cyclo(FLFLRRRLFRR[dP]P))						
3.1 (≈ 1.55 µM)	6.2 (≈ 3.09 µM)	6.2 (≈ 3.09 µM)	6.2 (≈ 3.09 µM)	CCCCCCC(=O)N[C@H]1C[C@H]2C(=O)N[C@@H](CC(C)C)C(=O)N[C@@H](CCCNC(=N)N)C(=O)N[C@@H](CC(C)C)C(=O)N[C@@H](CCCCN)C(=O)N[C@@H](CCCCN)C(=O)N[C@@H](CCCNC(=N)N)C(=O)N[C@@H](CCCNC(=N)N)C(=O)N[C@@H](Cc3c[nH]c4ccccc34)C(=O)N[C@@H](CCCCN)C(=O)N[C@@H](Cc3ccc(O)cc3)C(=O)N[C@@H](CCCNC(=N)N)C(=O)N[C@@H](C(C)C)C(=O)N3CCC[C@@H]3C(=O)N2C1 [Example 256] (cyclo(KKRRWKYRV[dP][X1]LRL))						Minimal inhibitory concentration (MIC) Pseudomonas putida ATCC 27853 [7]: 6.2 µg/mL (≈ 3.09 µM); Minimal inhibitory concentration (MIC) Staphylococcus aureus ATCC 25923 [8]: 25 µg/mL (≈ 12.5 µM); Minimal inhibitory concentration (MIC) Candida albicans (Candida albicans [9]): 25 µg/mL (≈ 12.5 µM); Minimal inhibitory concentration (MIC) Escherichia coli ATCC 25922 [10]: 6.2 µg/mL (≈ 3.09 µM); Minimal inhibitory concentration (MIC) Staphylococcus aureus ATCC 29213 [11]: 25 µg/mL (≈ 12.5 µM)
				CC(C)C[C@@H]1NC(=O)[C@H](Cc2c[nH]c3ccccc23)NC(=O)[C@H](CC(C)C)NC(=O)[C@@H]2CCCN2C(=O)[C@H]2CCCN2C(=O)[C@H](C(C)C)NC(=O)[C@H](CCCNC(=N)N)NC(=O)[C@H](Cc2ccc(O)cc2)NC(=O)[C@H](CCCNC(=N)N)NC(=O)[C@H](Cc2ccc(-c3ccccc3)cc2)NC(=O)[C@H](CCCNC(=N)N)NC(=O)[C@H](CCCNC(=N)N)NC(=O)[C@H](CCCCN)NC(=O)[C@H](CCCCN)NC1=O [Example 232] (cyclo(LWLKKRR[Bip]RYRV[dP]P))	1.5	6.2 (≈ 3.14 µM)	6.2 (≈ 3.14 µM)	9.4 (≈ 4.76 µM)	9.4 (≈ 4.76 µM)	
25 (≈ 13 µM)	6.2 (≈ 3.23 µM)	6.2 (≈ 3.23 µM)	6.2 (≈ 3.23 µM)	CC(C)C[C@@H]1NC(=O)[C@H](CCCNC(=N)N)NC(=O)[C@H](CC2CCCCC2)NC(=O)[C@@H]2CCCN2C(=O)[C@H]2CCCN2C(=O)[C@H](C(C)C)NC(=O)[C@H](CCCNC(=N)N)NC(=O)[C@H](Cc2ccc(O)cc2)NC(=O)[C@H](CCCCN)NC(=O)[C@H](Cc2c[nH]c3ccccc23)NC(=O)[C@H](CCCNC(=N)N)NC(=O)[C@H](CCCNC(=N)N)NC(=O)[C@H](CCCCN)NC(=O)[C@H](CCCCN)NC1=O [Example 121] (cyclo([Cha]RLKKRRWKYRV[dP]P))						
4.7 (≈ 2.68 µM)	50 (≈ 28.5 µM)	25 (≈ 14.2 µM)	25 (≈ 14.2 µM)	CC(C)C[C@@H]1NC(=O)[C@H](Cc2ccccc2)NC(=O)[C@H](CC(C)C)NC(=O)[C@H](CCCNC(=N)N)NC(=O)[C@@H]2CCCN2C(=O)[C@H]2CCCN2C(=O)[C@H](CC(C)C)NC(=O)[C@H](CCCNC(=N)N)NC(=O)[C@H](Cc2ccccc2)NC(=O)[C@H](Cc2ccccc2)NC(=O)[C@H](CCCNC(=N)N)NC(=O)[C@H](CCCNC(=N)N)NC(=O)[C@H](CCCNC(=N)N)NC1=O [Example 59] (cyclo(RLFLRRRFFRL[dP]P))						
